The values that follow come from US20190211024A1 (priority 2016, published 2019).

The melting point is the temperature of the solid-liquid transition. `CC(C)SN1C=Cn2c(nc(=O)n2[N+](=O)[O-])N1.O.O` (hydrate or solvate) displayed a melting point of 185 °C.
